Target: Plasminogen activator inhibitor 1 (Homo sapiens, UniProt P05121)
Test: Inhibition of human PAI1 using tissue type plasminogen activator substrate by chromogenic absorbance at 405 nm

Sequence of Plasminogen activator inhibitor 1 (P05121 whole entry): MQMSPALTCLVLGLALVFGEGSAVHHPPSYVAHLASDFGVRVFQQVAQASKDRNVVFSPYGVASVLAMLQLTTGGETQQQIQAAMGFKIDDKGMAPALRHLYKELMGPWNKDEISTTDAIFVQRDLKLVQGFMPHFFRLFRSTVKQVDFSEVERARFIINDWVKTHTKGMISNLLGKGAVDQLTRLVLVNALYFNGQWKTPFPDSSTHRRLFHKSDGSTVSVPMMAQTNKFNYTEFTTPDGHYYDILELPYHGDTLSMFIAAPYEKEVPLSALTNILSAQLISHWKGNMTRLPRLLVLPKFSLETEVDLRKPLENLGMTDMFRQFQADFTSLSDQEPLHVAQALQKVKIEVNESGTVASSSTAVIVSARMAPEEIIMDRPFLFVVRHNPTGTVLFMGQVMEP

| SMILES | IC50 [µM] |
| --- | --- |
| CC(C)C[C@@H]1c2c(O)c(C=O)c(O)c(C=O)c2O[C@]2(C)C=C[C@@H](C(C)C)C[C@H]12 [EUGLOBAL IA2] | 138 |
| CC(C)CC(=O)c1c(O)c(C=O)c2c(c1O)C[C@H]1C[C@H](C(C)C)C=C[C@@]1(C)O2 [EUGLOBAL IIC] | 700 |
| CC(C)C[C@@H]1C[C@@]2(CC[C@@H]3C[C@H]2C3(C)C)Oc2c(C=O)c(O)c(C=O)c(O)c21 [ROBUSTADIAL A] | 152 |
| CC(C)C[C@@H]1c2c(O)c(C=O)c(O)c(C=O)c2O[C@@H](c2c(O)c(C=O)c(O)c(C=O)c2O)[C@@H]1C(C)C [SIDEROXYLONAL A] | 3.3 |
| CC(C)C[C@@H]1c2c(O)c(C=O)c(O)c(C=O)c2O[C@@H](c2c(O)c(C=O)c(O)c(C=O)c2O)[C@H]1C(C)C [SIDEROXYLONAL B] | 5.3 |
| CC(C)C[C@H]1c2c(O)c(C=O)c(O)c(C=O)c2O[C@@H](c2c(O)c(C=O)c(O)c(C=O)c2O)[C@@H]1C(C)C [SIDEROXYLONAL C] | 4.7 |
